According to patent US11969400B2, “Ibuprofen for symptomatic treatment of diarrheas in HIV patients” (priority 2021, dated 2024):

System: noninfectious diarrhea in HIV positive subjects
Test: Randomized double-blinded study of Acetaminophen vs Ibuprofen suspension in HIV positive subjects with noninfectious diarrhea
Assay type: in vivo, human
Conditions: for average number of stools twenty-four hours later: after 24 hours of treatment, clear liquid diet, range in brackets, two-tailed p <0.0001 between groups, 95% CI 1.44-2.6; for average number of stools on the first visit (day 1): baseline at first visit (day 1), 42 enrollees per group
Protocol: HIV positive subjects who present with noninfectious diarrhea are enrolled in a study. All enrollees are randomly divided into two groups A (Acetaminophen) and B (Ibuprofen) and treated for 24 hours. They receive a double-blinded suspension of either Acetaminophen or Ibuprofen during the study period. The enrollees are instructed to consume only a clear liquid diet during the study period. After 24 hours, the number of loose stools since last visit and status of hydration are reassessed. In addition, enrollees are examined and assessed for any possible side effects of the medications. A total of 84 patients are enrolled into the study. Both drug categories has 42 (50%) enrollees. Two patients are lost to follow up in each group. The average number of stools on the first visit (day 1) in group A (Acetaminophen) is 5.12 and the average number of stools in group B (ibuprofen) is 5.25. Twenty-four hours later, the average number of stools, in group A is 3.45 (1-5) and the average number of stool in group B, is 1.9 (0-4). The two-tailed p-value was <0.0001 with a confidence interval at 95% (1.44-2.6).

SMILES | average number of stools twenty-four hours later | average number of stools on the first visit (day 1)
CC(=O)Nc1ccc(O)cc1 [Acetaminophen] | 3.45 (1-5) | 5.12
CC(C)Cc1ccc(C(C)C(=O)O)cc1 (stereo not shown) [ibuprofen] | 1.9 (0-4) | 5.25
